According to patent US20160128988A1, “COMBINATIONS FOR THE TREATMENT OF CANCER COMPRISING A MPS-1 KINASE INHIBITOR AND A MITOTIC INHIBITOR” (BAYER PHARMA AKTIENGESELLSCHAFT, priority 2013, published 2016):

How the values were obtained:
[1] = Maximum tolerated dose (MTD); type: in vivo, nude mice; conditions: nude, mouse, in vivo; Compound A1 PO 2QD 2 days on/5 days off; paclitaxel IV QW; docetaxel i.v. 1 day on/6 days off; read-out: MTD (maximum tolerated dose), single-agent
[2] = tested on: A2780cis xenograft model
Experimental: The effect of the combination treatment of Compound A1 with paclitaxel was studied in a human ovarian carcinoma model in nude mice, namely in the adaptive cisplatin-resistant and paclitaxel intrinsically-resistant A2780cis xenograft model. […] Paclitaxel was administered IV QW at its respective MTD.

[3] = tested on: NCI-H1299 human NSCLC xenograft tumors
Experimental: The effect of combination treatment of an Mps-1 inhibitor and paclitaxel was studied in the NCI-H1299 taxane intrinsically resistant human lung carcinoma (NSCLC) xenograft model in nude mice.
Paclitaxel was applied intravenously once per week upon its respective MTD. Substances were formulated in optimal vehicles to achieve solutions. Animal body weight and tumor size were determined two to three times weekly. […] For combination treatment, the Compound A1 and paclitaxel were applied at the same day within a time frame of 4 hours. Animals of control and monotherapy group (Compound A1 only) were treated for a duration of 28 days. Animals of paclitaxel monotherapy and paclitaxel/Mps-1 inhibitor treatment groups were treated for a duration of 37 days. At the end of the study after one final treatment plasma and tumors were sampled for PK analysis and final tumor weight was determined.
FIGS. 1A and 1B show the response of NCI-H1299 human NSCLC xenograft tumors to treatment with Compound A1 in combination with paclitaxel. NCI-H1299 human NSCLC tumor cells were implanted s.c. into nude mice on day 0. […] Compound A1 was administered orally (p.o.) upon 0.45 mg/kg twice daily (2QD) for 2 days on/5 days off (2 on/5 off) in monotherapy and in combination with paclitaxel. Paclitaxel was administered intravenously (i.v.) upon 20 mg/kg once daily (QD) once per week (1 on/6 off) in monotherapy and combination therapy. Tumor growth was monitored by determination of the tumor area using calliper measurement two to three times weekly. FIG. 1A: Time course of tumor growth. FIG. 1B: Time course of animal body weight change during the course of the study.

[4] = tested on: cisplatin-resistant ovarian cancer cells A2780cis; experiment: Mode of action: histopathology of A2780cis tumors after treatment; conditions: Compound A1 single agent 2.5 mg/kg PO 2QD 2 days on/5 days off, samples 24 hours after first administration
Experimental: To explain in vivo the mode of action of an Mps-1 kinase inhibitor in single-agent treatment and combination treatment with a taxane, female NMRI (Naval Medical Research Institute) nude mice were implanted with cisplatin-resistant ovarian cancer cells A2780cis.
Paclitaxel was administered IV (intravenous(ly)) QW (once per week (meaning the 1 day on/6 days off treatment schedule)) at its MTD (24 mg/kg) in single-agent and combination treatments. […] Tumors were embedded in paraffin, sections were prepared and stained with hematoxylin & eosin for histopathological analysis.

[5] = tested on: A2780 human ovarian carcinoma model; type: in vivo; conditions: Compound A1 single agent 1 mg/kg and 2.5 mg/kg (8 days); triple combination (17 treatment days)
Experimental: Cisplatin and paclitaxel were administered in combination at their respective MTD, cisplatin intraperitoneally (IP) every second week (Q2W) and paclitaxel IV QW.

[6] = Compound A1 0.45 mg/kg 2QD 2on/5off p.o., paclitaxel 20 mg/kg QD 1on/6off i.v.

SMILES: COc1cc(S(C)(=O)=O)ccc1Nc1nc2ccc(-c3ccc(NC(=O)[C@H](C)c4ccc(F)cc4)cc3)cn2n1 [Compound A1]
- MTD [1]: 2.5 mg/kg
- T/Cweight ([2]; 14 treatment days, Compound A1 1 mg/kg PO 2QD 2 days on/5 days off): 0.87
- relative T/Carea ([2]; 14 treatment days, Compound A1 1 mg/kg PO 2QD 2 days on/5 days off, paclitaxel 24 mg/kg IV QW): 0.89
- anti-tumor efficacy (in words) ([2]; Compound A1 1 mg/kg (14 days), combination with paclitaxel 24 mg/kg (36 treatment days)): weak single-agent efficacy
- tolerability (in words) ([2]; mouse, in vivo): well tolerated without critical body weight loss or toxicities
- Fatal Tox [3, 6]: 0/10
- Max. Body weight loss (%) [3, 6]: −1%
- anti-tumor efficacy (in words) ([3]; Compound A1 0.45 mg/kg 2QD p.o. (28 treatment days), combination with paclitaxel 20 mg/kg i.v. (37 treatment days)): no effect on tumor growth
- T/C weight ([3]; mean final tumor weight, Compound A1 0.45 mg/kg 2QD 2on/5off p.o.): 1.34
- T/C area ([3]; relative mean tumor area, 28 treatment days, Compound A1 0.45 mg/kg 2QD 2on/5off p.o., paclitaxel 20 mg/kg QD 1on/6off i.v.): 1.27
- histopathological phenotype of tumor tissue [4]: induction of a pleomorphic phenotype, including multinuclearity
- anti-tumor efficacy (in words) [5]: weak single-agent efficacy
